The values that follow come from US9682033B2, “Methods of treating postherpetic neuralgia with a topical formulation of a spiro-oxindole compound” (Teva Pharmaceuticals International GmbH, priority 2015, dated 2017).

By Tmax is commonly meant the time from dosing to the highest level. Broadly, the AUC(0-inf) is the area under the concentration-time curve extrapolated to infinity. High values mean more exposure, low ones less exposure. One may read the AUC(0-t) as the area under the concentration-time curve up to a stated or last time point. Higher therefore signals more exposure. In general, Cmax refers to the highest concentration seen after dosing.

The target in one series is CYP3A4 (Homo sapiens, UniProt P08684). In words: Drug-drug interaction study in healthy subjects: midazolam (CYP3A4 substrate) pharmacokinetics (Biological Example 5). The settings on record: for Tmax / AUC(0-inf) / AUC(0-t) / Cmax: both, human, in vivo; for AUC(0-inf) / AUC(0-t) / Cmax: 3 mg. The source says: (§1) This was a single center, open-label, 1-sequence drug-drug interaction study in 32 healthy adult male and female subjects. The study consisted of a 28-day screening period, a 10-day inpatient treatment period, and a follow-up visit. Subjects meeting the study inclusion/exclusion requirements were admitted to the clinical research unit on day −1 and were confined until day 10.
(§2) Blood samples were collected for the assessment of the pharmacokinetics of midazolam and omeprazole.
(§3) The primary pharmacokinetic endpoints were the geometric mean ratios (90% confidence intervals [CIs]) for Cmax, AUC0-t, and AUC0-inf for midazolam and omeprazole on day 9 versus day 1.
(§4) Blood samples were collected for the assessment of the pharmacokinetics of the major metabolites of midazolam (1-OH-midazolam) and omeprazole (5-OH-omeprazole), and for the spiro-oxindole compound. Further secondary pharmacokinetic variables included Cmax, tmax, AUC0-t, AUC0-inf, CL/F, λz, t1/2, and % AUCext for 1-OH-midazolam and 5-OH-omeprazole, on days 1 and 9, and Cmax, morning predose concentrations (Ctrough), average plasma concentration over the dosing interval (Cave), and area under the plasma concentration-time curve over the dosing interval (AUC0-τ) were presented for the spiro-oxindole compound.
(§5) Descriptive statistics (n, mean, geometric mean, standard deviation [SD], % CV, median, minimum, and maximum) were used to summarize plasma midazolam, omeprazole and their metabolites, and the spiro-oxindole compound concentration for all subjects overall at each scheduled time point. Descriptive statistics (as noted above) were also used to summarize plasma omeprazole, 5-OH-omeprazole, and the spiro-oxindole compound concentration for all subjects overall by CYP2C19 genotype at each scheduled time point. Pharmacokinetic parameters were derived by noncompartmental analysis. Descriptive statistics (as noted above) were used to summarize the calculated pharmacokinetic parameters for midazolam, omeprazole and their metabolites, and the spiro-oxindole compound by treatment for all subjects. Descriptive statistics (as noted above) were also used to summarize the calculated pharmacokinetic parameters for omeprazole, 5-OH-omeprazole, and the spiro-oxindole compound by treatment and CYP2C19 genotype. Plots of geometric mean and individual plasma concentrations and of select pharmacokinetic parameters for midazolam, omeprazole and their metabolites and the spiro-oxindole compound at select sampling times were provided. Additionally, plots of individual select pharmacokinetic parameters by CYP2C19 phenotype for omeprazole at select time points were provided.

For a further series, the system named is CYP2C19. Briefly: clinical. The settings on record: both, human, in vivo, 20 mg.
Text: as §1, §2, §3, §4, §5

The test system of series [1] is streptozotocin-induced neuropathic pain model. In words: Streptozotocin-induced neuropathic pain model, mechanical allodynia (paw withdrawal threshold). Type of series: in vivo, rats. The settings on record: rats, topical, 30 minutes after the dose. From the text: Topical 4% Test Pharmaceutical Composition was compared with lidocaine and diclofenac for relief of mechanical allodynia in the streptozotocin-induced neuropathic pain model in rats.

The mark [2] stands for this setting: 1-OH metabolite after oral midazolam, day 1.
[3] abbreviates: 1-OH metabolite after oral midazolam, day 9.

CYP3A4, sequence (P08684 whole entry): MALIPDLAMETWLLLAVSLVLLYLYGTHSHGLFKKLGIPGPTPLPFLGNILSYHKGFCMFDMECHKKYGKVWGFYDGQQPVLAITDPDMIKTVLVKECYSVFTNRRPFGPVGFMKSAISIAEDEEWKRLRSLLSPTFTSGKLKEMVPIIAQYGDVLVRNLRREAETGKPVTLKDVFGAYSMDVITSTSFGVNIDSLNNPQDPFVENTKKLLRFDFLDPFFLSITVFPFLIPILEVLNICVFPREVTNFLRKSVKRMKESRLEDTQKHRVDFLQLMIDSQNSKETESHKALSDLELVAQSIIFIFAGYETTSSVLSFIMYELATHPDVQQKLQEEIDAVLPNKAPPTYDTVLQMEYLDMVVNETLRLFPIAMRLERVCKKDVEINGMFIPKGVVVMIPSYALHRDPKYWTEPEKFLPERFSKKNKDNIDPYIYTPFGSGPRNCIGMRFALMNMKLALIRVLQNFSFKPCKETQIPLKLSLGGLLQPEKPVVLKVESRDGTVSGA

`Cc1ncc2n1-c1ccc(Cl)cc1C(c1ccccc1F)=NC2` [midazolam, reference compound]: at CYP3A4, the Tmax was determined as 0.75 h, the AUC(0-inf) stood at 40.7 ng·h/mL, the AUC(0-t) was determined as 39.4 ng·h/mL and the highest level (Cmax) was 14.6 ng/mL. Moreover, at CYP3A4 (po), the Tmax worked out at 0.63 h, the AUC(0-inf) stood at 43.8 ng·h/mL, the exposure AUC(0-t) is 42.2 ng·h/mL and the Cmax came to 16.9 ng/mL.
On to `COc1ccc2[nH]c([S+]([O-])Cc3ncc(C)c(OC)c3C)nc2c1` (centres unmarked) [omeprazole], for which, in the series on CYP2C19, the Tmax was 2.5 h. In addition, in the series with CYP2C19 (po), the “AUC0-inf (geometric mean)” value stood at 633.97 ng·h/mL, the “AUC0-t (geometric mean)” value stood at 556.16 ng·h/mL, the “Cmax (geometric mean)” value turned out to be 227.04 ng/mL and the Tmax turned out to be 2 h. Also, in the series with CYP2C19 (po, AUC0-inf (geometric mean)), the AUC(0-inf) came out at 635 ng·h/mL. In the series with CYP2C19 (po, AUC0-t (geometric mean)), this compound registered an AUC(0-t) of 545 ng·h/mL. The Cmax in the series on CYP2C19 (po, Cmax (geometric mean)) stood at 227 ng/mL.
With `OCc1ncc2n1-c1ccc(Cl)cc1C(c1ccccc1F)=NC2` [1-OH-midazolam], on CYP3A4 (1-OH metabolite after oral midazolam, both days 1 and 9), the “tmax (median)” value turned out to be 0.75 h. For the same compound, at CYP3A4 (setting [2]), the “AUC0-inf (geometric)” value came out at 16.83 ng·h/mL, the “AUC0-t (geometric)” value turned out to be 15.82 ng·h/mL, the “Cmax (geometric mean)” value is 7.33 ng/mL and the “t1/2 (geometric mean)” value stood at 4.39 h. Moreover, on CYP3A4 (setting [3]), the “AUC0-t (geometric)” value worked out at 17.18 ng·h/mL, the “Cmax (geometric mean)” value stood at 6.67 ng/mL and the “t1/2 (geometric mean)” value stood at 4.68 h.
For `O=C(O)Cc1ccccc1Nc1c(Cl)cccc1Cl` [diclofenac], in series [1], the “paw withdrawal threshold for the drug-treated paw (mechanical hyperalgesia)” value is given as “no significant increase in threshold”.
Same read-out and setting: the value for `CCN(CC)CC(=O)Nc1c(C)cccc1C` [lidocaine] was “no significant increase in threshold”.
